The values below come from PMC12508576, “Implementing a trilineage differentiation in the ReproTracker assay for improved teratogenicity assessment” (Frontiers in Toxicology, 2025).

The subject of data set [1] is hiPSCs trilineage differentiation (cardiomyocytes, hepatocytes, neural rosette-like cells). The data set can be described thus: ReproTracker trilineage differentiation, overall teratogenicity prediction. As to conditions: lowest tested concentration with significant decrease of at least one biomarker, trilineage assay; 'N.d. up to x' given as > x.
Text: (§6) In ReproTracker, teratogenicity prediction of test compounds is based on a Weight of Evidence (WoE) approach, which considers both the significant decrease in biomarker expression and the morphological/functional changes following exposure to test compounds throughout differentiation assays.
(§7) This threshold, for any given biomarker, is defined as the average minus one time the standard deviation (SD) of the biomarker expression levels in solvent-exposed control cultures throughout the experiment. Reduced expression of the selected biomarkers below the set threshold in a concentration-dependent manner, upon exposure to a minimum of 2 consecutive non-cytotoxic concentrations would be considered significant (noted as +). A decrease in expression below the threshold without a clear dose-response would lead to an equivocal classification (noted as (+)). An increase in expression or a lack of response would be considered negative (noted as -). Disruption of morphology/functionality of the cultures upon compound exposure at the two highest tested concentrations in all biological replicates is considered as a morphological disruption (noted as +). Absence of significant effects results in a negative score (noted as -).
(§8) For each differentiation assay, the expression of two biomarkers and a morphological/functional read-out are considered. In the hepatocyte and cardiomyocyte differentiation, FOXA2 and BMP4 are considered germ-layer-specific biomarkers, while AFP and MYH6 are considered cell-specific biomarkers, respectively. When applying the WoE approach, the cell-specific biomarkers in hepatocyte and cardiomyocyte differentiation are given higher weight compared to the germ-layer specific biomarkers and morphology/functionality. For the neural differentiation, both PAX6 and NESTIN are given equal weight as they are considered cell-specific markers. In this case, both biomarkers are given higher weight than the morphological read-out.
(§9) Every measurement/observation is assigned a score (positive, negative, or equivocal). […] In the ReproTracker assay, a compound is identified as a teratogen if it receives a positive score in at least one of the trilineage differentiation assays (cardiomyocyte, hepatocyte, or neural differentiation). […] If neither biomarker expression levels nor morphology/functionality are affected in any of the differentiation assays, the response is considered negative.
The subject of data set [2] is hiPSCs differentiating into neural rosette-like cells. Here is the method:
(§1) Prior to differentiation, the cells were harvested and dissociated into single cells using Gibco™ TrypLE™ Select (ThermoFisher Scientific; Bleiswijk, Netherlands) for 5 min at 37 °C. Cells were seeded in Matrigel™-coated 24-well plates (ThermoFisher Scientific) in mTeSR™1 containing RevitaCell™ Supplement (ThermoFisher Scientific). […] The cells were cultured in this medium until D3. From D3 until the end of the differentiation protocol (D13) (one-step protocol), cells were cultured in N2B27 medium without ROCK inhibitor or LDN193189. In the case of the replating protocol, cells were replated at D7 and grown in the same medium until day 13. At the end of the differentiation, morphology of the cells was assessed using an Operetta CLS (Revvity) instrument. The expected morphology for each of the lineages, to ensure data acceptance and correct differentiations, is further described in Section 2.9 of the methods section. The trilineage differentiation was replicated in 96-well plates (ThermoFisher Scientific and Revvity Phenoplate) using the same differentiation protocols with an adapted number of cells for the seeding. And termination at D14.
(§2) Cells were harvested, and total RNA was isolated using the Maxwell® RSC simply RNA Cells Kit (cat. no.: #AS1390; Promega) on a Maxwell automated purification instrument (Maxwell RSC 48; Promega). […] Each individual primer was paired with its corresponding fluorophore and quencher and adjusted accordingly depending on gene abundance. Primer and probe sequences are described in Supplementary Table S1.
(§3) Data acceptance was based on the appropriate expression of the assessed biomarker genes in the differentiated populations, at appropriate times during differentiation. Failure to observe the expected temporal expression of key, lineage-specific biomarkers, during the cell fate choices associated with each differentiation protocol, would result in the experiment being invalidated.
(§4) To follow morphological changes throughout the hepatocyte and neural differentiation protocol, brightfield images of the cells were acquired after each medium refresh using an iRiS digital cell imaging microscope (Logos Biosystems) or an Operetta CLS (Revvity) instrument. Images were scored based on visual assessment. Cardiac contractability of cardiomyocytes was evaluated visually using an iRiS digital cell imaging microscope (Logos Biosystems).
(§5) Morphologically, cardiomyocytes are expected to group in fiber-like 3D structures that distribute throughout the entire plate. Aside from morphology, an additional criterion for cardiomyocyte differentiation in each experimental setup is for the contracting mature cardiomyocyte cultures exposed to solvent controls, to reach 75%. […] Neural rosettes are recognized by well-defined cell boundaries and multi-layered cultures. Functional/morphological assessment was completed independently from biomarker data analyses. Morphology scores were confirmed by a second person. Failure to observe the anticipated cell morphology/functionality throughout differentiation would result in invalidation of the experiment. Disruption in the morphology of cardiomyocytes is described as a lack of 3D-fibre-like structures in the cultures as well as a clear lack of contractions. Morphologically aberrant hepatocytes are characterized by a lack of polygonal structures with smaller cytoplasm that in the control cultures and the formation of dark cell-dense structures, commonly indicative of clumps of dead cells with big empty spaces between cell colonies.

For data set [3] the following is noted: read-out: Human therapeutic cmax, Table 1 (R3 I (2021), Schulz et al. (2020) and others); cited from earlier work.
In data set [4] the test system is hiPSCs differentiating into hepatocyte-like cells. As to conditions: lineage call; footnote b: previously published data; ref Jamalpoor et al., 2022; cited from earlier work.
Data set [5] relates to undifferentiated hiPSCs. The arrangement: method as in Jamalpoor et al., 2022. The note with it: lowest concentration that induced a maximum of 20% cytotoxicity in hiPSCs; dose-range finding previously published; ref Jamalpoor et al., 2022; cited from earlier work.
Data set [6] concerns hiPSCs differentiating into cardiomyocyte-like cells. As to conditions: lineage call; footnote b: previously published data; ref Jamalpoor et al., 2022; cited from earlier work.
Data set [7] deals with hiPSCs trilineage differentiation (cardiomyocytes, hepatocytes, neural rosette-like cells). The note with it: human.
Text: as §6, §7, §8, §9
Data set [8] has as its system hiPSCs differentiating into cardiomyocyte-like cells. Kind of data set: ReproTracker cardiomyocyte differentiation assay. Here is the method:
as §1, §2, §3, §4, §5

Data set [9] concerns hiPSCs differentiating into hepatocyte-like cells. The data set can be described thus: ReproTracker hepatocyte differentiation assay. The protocol:
as §1, §2, §3, §4, §5

Data set [10] deals with undifferentiated hiPSCs. The data set can be described thus: Concentration-range selection and cytotoxicity assessment (AlamarBlue). The note with it: lowest concentration that induced a maximum of 20% cytotoxicity in hiPSCs, 7 days.
Experimental: In short, hiPSCs were exposed to 20 consecutive concentrations of the test compounds using 1 mM or the maximum soluble concentration as the top concentration. Test compounds were added to the medium prior to the refreshes at D0 and D3. Cytotoxicity was estimated at D7; upon completion of the experiments, cells were incubated with resazurin solution (0.01 mg/mL in PBS) and measured absorbance (excitation 530 nm and emission 590 nm). Results were normalized against vehicle controls (0.1% v/v DMSO).
All compounds were tested at five consecutive concentrations in two-fold dilution steps. The top concentration was determined as the lowest concentration that induced a maximum of 20% cytotoxicity in the concentration range finding experiments. Compounds were then diluted 2-fold using serial dilutions.
Data acceptance for dose-range finding experiments was based on the response to positive and negative assay controls, and compound solubility and cytotoxicity. […] Concentrations of compound(s) inducing cytotoxicity and therefore reducing cell survival below 80% were excluded from further testing in differentiation assays.
Thus, to determine cytotoxicity of the test compounds, undifferentiated hiPSCs were exposed to 20 consecutive concentrations at 2-fold dilutions for 7 days. The lowest concentration that induced a maximum of 20% cytotoxicity in the concentration range finding experiment was applied as top concentration for the differentiation experiments.
Data set [11] relates to hiPSCs differentiating into neural rosette-like cells. Kind of data set: Neural rosette differentiation, replating protocol, PAX6/NESTIN immunostaining. In kind it is cell-based, human. As to conditions: for PAX6 protein levels: D13, non-cytotoxic concentrations; for NESTIN protein levels: D13, tacrolimus: highest tested concentration; for NESTIN localization: D13. Here is the method: as §1
For neural rosette-like cells’ imaging, cells were washed with PBS and subsequently, cells were fixed using 4% paraformaldehyde in PBS. Permeabilization was performed using 0.1% Triton-X in PBS for 10 min at room temperature. Cells were blocked using 10% donkey serum diluted in PBS +0.1% Tween20 for 10 more minutes. Incubation with primary antibody overnight at 4 °C was performed to stain the cells. The cells were washed 3 times with PBS +0.1% Tween20 and incubated with a secondary antibody in PBS for 1 h at room temperature. Cellular nuclei were stained using Hoechst H33342 (CAS# […], Sigma Aldrich in a 1:5000 dilution). Imaging was done using an Operetta CLS (Revvity) instrument. Primary and secondary antibodies’ concentrations are described in Supplementary Table S2.
To quantify PAX6-and NESTIN-positive cells, Hoechst-stained nuclei were selected based on their fluorescent signal above the background. Cells were also excluded if touching the edge of the fields of view. Also, size exclusion was applied to avoid clustered nuclei being counted as single objects. Fluorescence measurements of PAX6 were performed within the defined nuclei and intracellularly for NESTIN. Then, a minimal fluorescence threshold was defined, resulting in the selection of PAX6-positive cells and NESTIN-positive cells. Finally, the percentages of PAX6-and NESTIN-positive cells were calculated using Revvity Harmony™ Software.
The compounds were tested in both the replating and the one-step protocols. Due to the nature of the protocols, teratogenicity prediction of the compounds was performed based on quantification of PAX6 and NESTIN-positive cells at D13 in the replating protocol or on a significant reduction in the biomarker gene expression at D7 and D13, as well as qualitative morphological analysis at D13 in the one-step protocol.

Each structure is given as a SMILES string. Where two headings read alike, the source gives them in different places.

For `[CH3][Hg][Cl]` [Methylmercury], in data set [1], the “ReproTracker results LOAEL” value was “N.d. up to 0.31 µM”. The “ReproTracker results Neural rosette-like cells” value in data set [2] (lineage call (positive/equivocal/negative)) is reported as “Negative”. For the same compound, the Cmax in [3] is 1 to 30 nM. Moreover, in data set [4], the “ReproTracker results Hepatocyte-like cells” value was “Negative”. The “top concentration for the differentiation experiments” value in the data set with undifferentiated hiPSCs [5] was 0.3 µM. Moreover, the “ReproTracker results Cardiomyocyte-like cells” value in [6] is listed as “Negative”.

For `CCCCCCCCc1ccc(CCC(N)(CO)CO)cc1` [Fingolimod], the “ReproTracker results Neural rosette-like cells” value in data set [2] is listed as “Negative”. Also, in data set [3], the Cmax was 3 to 50 nM. For the same compound, the “ReproTracker results Hepatocyte-like cells” value in [4] is recorded as “Positive”. For the same compound, in data set [7], the “LOAEL compared with respective human therapeutic Cmax” value is on record as “higher” and the “ReproTracker results LOAEL” value is listed as at most 0.25 µM. Moreover, in [6], the “ReproTracker results Cardiomyocyte-like cells” value was “Positive”.

On to `CN(Cc1cnc2nc(N)nc(N)c2n1)c1ccc(C(=O)N[C@@H](CCC(=O)O)C(=O)O)cc1` [Methotrexate], for which the “ReproTracker results Neural rosette-like cells” value in data set [2] was “Negative”. Moreover, in data set [3], the Cmax is 20 to 1100 nM. In data set [8], the “ReproTracker results Cardiomyocyte-like cells” value is “Negative”. In addition, in data set [7], the “LOAEL compared with respective human therapeutic Cmax” value is recorded as “equal to or below” and the “ReproTracker results LOAEL” value is given as “N.d. up to 0.122 µM”. For the same compound, in [9], the “ReproTracker results Hepatocyte-like cells” value is given as “Negative”. Moreover, the “top concentration for the differentiation experiments” value with undifferentiated hiPSCs [10] was 0.1 µM.

As for `O=C1NS(=O)(=O)c2ccccc21` [Saccharin], in data set [1], the “ReproTracker results LOAEL” value was “N.d. up to 250 µM”. Moreover, in [2], the “NESTIN gene expression at D13” value is “no effect”, the “PAX6 gene expression at D7” value is recorded as “no effect”, the “ReproTracker results Neural rosette-like cells” value is on record as “Negative” and the “morphology of neural rosette-like cells” value is listed as “no effect”. Also, in [11], the PAX6 protein levels entry is listed as “no effect” and the NESTIN protein levels entry is recorded as “no effect”. Moreover, in the data set with undifferentiated hiPSCs [5], the “top concentration for the differentiation experiments” value is 250 µM. For the same compound, the “ReproTracker results Cardiomyocyte-like cells” value in data set [8] is “Negative”. Further, the “ReproTracker results Hepatocyte-like cells” value in [9] is “Negative”.

In the case of `CC1=C(/C=C/C(C)=C/C=C/C(C)=C/C(=O)O)C(C)(C)CCC1` [Tretinoin (Retinoic acid)], in data set [2], the “NESTIN gene expression at D7” value was “increased”, the “NESTIN gene expression at D13” value is recorded as “downregulated”, the OTX2 gene expression result is on record as “downregulation” and the “PAX6 gene expression at D7” value was “downregulation”. In [2], the “PAX6 gene expression at D13” value is given as “downregulation”, the “ReproTracker results Neural rosette-like cells” value is “Positive” and the “morphology of neural rosette-like cells” value is given as “disrupted”. Besides, the Cmax in [3] was 1300 nM. In [11] (5 µM), the “effect at the highest tested concentration in the replating protocol” value is reported as “complete cell death”. For the same compound, in data set [11], the NESTIN localization entry was “disrupted”, the PAX6 protein levels entry is “significantly decreased” and the NESTIN protein levels result is “increasing”. Also, the “ReproTracker results Cardiomyocyte-like cells” value in data set [8] is “Positive”. In [7], the “LOAEL compared with respective human therapeutic Cmax” value was “equal to or below” and the “ReproTracker results LOAEL” value is at most 0.3 µM. In addition, the “ReproTracker results Hepatocyte-like cells” value in [9] was “Positive”. Also, the “top concentration for the differentiation experiments” value in the data set with undifferentiated hiPSCs [10] is given as 5 µM.

Turning to `Cc1ncc(C[n+]2csc(CCO)c2C)c(N)n1` [Thiamine], the “ReproTracker results LOAEL” value in [1] is recorded as “N.d. up to 1000 µM”. Also, the “ReproTracker results Neural rosette-like cells” value in data set [2] was “Negative”. Further, the Cmax in data set [3] was 400 nM. For the same compound, the “ReproTracker results Hepatocyte-like cells” value in data set [4] is listed as “Negative”. The “ReproTracker results Cardiomyocyte-like cells” value in [6] is given as “Negative”.

Take `CC(O)CO` (stereo not drawn) [1,2-propylene glycol]: the “ReproTracker results LOAEL” value in data set [1] was “N.d. up to 1000 µM”. Further, the “ReproTracker results Neural rosette-like cells” value in [2] was “Negative”. In data set [3], the Cmax is 300 to 3100 nM. Besides, the “ReproTracker results Hepatocyte-like cells” value in data set [4] is “Negative”. Besides, the “ReproTracker results Cardiomyocyte-like cells” value in data set [6] is “Negative”.

For `O=c1[nH]cc(F)c(=O)[nH]1` [5-Fluorouracil], the “ReproTracker results LOAEL” value in [1] is reported as “N.d. up to 1.3 µM”. In data set [2], the “ReproTracker results Neural rosette-like cells” value is on record as “Negative”. Also, in data set [3], the Cmax is 400 to 2300 nM. Besides, in data set [8], the “ReproTracker results Cardiomyocyte-like cells” value is “Negative”. The “ReproTracker results Hepatocyte-like cells” value in [9] is recorded as “Negative”. The “top concentration for the differentiation experiments” value with undifferentiated hiPSCs [10] came to 1 µM.

Take `N[C@@H](CC(=O)N1CCn2c(nnc2C(F)(F)F)C1)Cc1cc(F)c(F)cc1F` [Sitagliptin]: in data set [1], the “ReproTracker results LOAEL” value was “N.d. up to 1000 µM”. The “ReproTracker results Neural rosette-like cells” value in [2] is “Negative”. Besides, the Cmax in data set [3] is 100 to 900 nM. Further, the “ReproTracker results Hepatocyte-like cells” value in [4] is “Negative”. For the same compound, the “ReproTracker results Cardiomyocyte-like cells” value in [6] is given as “Negative”.

On to `C=CC[C@@H]1/C=C(\C)C[C@H](C)C[C@H](OC)[C@H]2O[C@@](O)(C(=O)C(=O)N3CCCC[C@H]3C(=O)O[C@H](/C(C)=C/[C@@H]3CC[C@@H](O)[C@H](OC)C3)[C@H](C)[C@@H](O)CC1=O)[C@H](C)C[C@@H]2OC` [Tacrolimus], for which, in [2], the “NESTIN gene expression at D13” value is “downregulated”, the NGN2 gene expression result was “no significant effect”, the OTX2 gene expression result is recorded as “no significant effect” and the “PAX6 gene expression at D7” value is on record as “downregulation”. Further, in data set [2], the “PAX6 gene expression at D13” value is reported as “increasing”, the “ReproTracker results Neural rosette-like cells” value is recorded as “Positive”, the SOX1 gene expression entry is recorded as “no significant effect” and the “morphology of neural rosette-like cells” value was “disrupted”. The peak concentration (Cmax) in data set [3] was 0.6 to 30 nM. Moreover, in data set [11], the NESTIN localization entry is given as “affecting”, the PAX6 protein levels result is “concentration-dependent decrease” and the NESTIN protein levels result is on record as “increased”. The “top concentration for the differentiation experiments” value in the data set on undifferentiated hiPSCs [5] was 7.81 µM. Further, in [8], the “ReproTracker results Cardiomyocyte-like cells” value is on record as “Equivocal”. In data set [7], the “LOAEL compared with respective human therapeutic Cmax” value is on record as “higher” and the “ReproTracker results LOAEL” value is given as at most 0.2 µM. Further, the “ReproTracker results Hepatocyte-like cells” value in data set [9] is on record as “Positive”.
